Assay results as given in patent EP4796129A1, “ANTI-NECTIN-4 ANTIBODY-DRUG CONJUGATE COMPRISING CAMPTOTHECIN DERIVATIVE” (Celltrion, Inc., priority 2023, dated 2025).

What was measured:
[1] = test system: SUM190PT (a breast cancer cell line); experiment: In-vitro cell viability assay (CellTiter-Glo); assay type: cell-based
[2] = test system: T47D (a breast cancer cell line); experiment: cells; conditions: Homo sapiens
Procedure: Specifically, the cell lines described in Table 5 were seeded per well in a 96-well plate and incubated at room temperature (37°C, 5% CO2). After 24 hours, the cells were treated with 100 µL of payload compounds or ADC drugs at 9 concentrations (a 4-fold serial dilution starting from 1,000 nM). In particular, a control group (drug concentration 0), which is an untreated group, was also prepared. After 6 days of incubation (37°C, 5% CO2), 100 µL of CellTiter-Glo reagent (CellTiter-Glo® Luminescent Cell Viability Assay kit (Promega, G7571)) was added to each well and pipetted. Fluorescence was measured after incubation at room temperature (RT) for 10 minutes.

[3] = test system: PC-3 (a prostate cancer cell line); experiment: In-vitro cell viability assay (CellTiter-Glo); assay type: cell-based
T47D human breast cancer = experiment: Xenograft model of T47D human breast cancer (xxT47D) in BALB/c nude mice; assay type: in vivo, female BALB/c nude mice; conditions: 50 mg/kg p.o. QD x 4 weeks
[4] = test system: bladder cancer xenograft model (BL9200); experiment: HuPrime bladder cancer xenograft model (BL9200) in NOD/SCID mice; assay type: in vivo, NOD/SCID strain female mice; conditions: for Tumor Volume (mean ± SEM), Day 25: number of mice in brackets

How did the IC50 [1] turn out when CC[C@@]1(O)C(=O)OCc2c1cc1n(c2=O)Cc2c-1nc1cc3c(c4c1c2[C@@H](NC(=O)[C@@H](C)O)CC4)OCO3 [PBX-7016] was run?
Its IC50 is 9.4 nM.

And the IC50 [2]?
The IC50 was 0.47 nM.

What about the IC50 [3] of the same compound?
The IC50 was 3.51 nM.

With CC(=O)c1c(C)c2cnc(Nc3ccc(N4CCNCC4)cn3)nc2n(C2CCCC2)c1=O [Palbociclib] as the compound, how does the “Tumor Weight (g) on Day 28, mean ± SEM” value (T47D human breast cancer) read?
Its value is 0.396 ± 0.047 g.

And the “Tumor Volume (mm^3), mean ± SEM” value (T47D human breast cancer; day 3)?
The value was 249 ± 17 mm^3.

What about the “Tumor Volume (mm^3), mean ± SEM” value (T47D human breast cancer; day 7) of the same compound?
The value was 290 ± 22 mm^3.

What about the “Tumor Volume (mm^3), mean ± SEM” value (T47D human breast cancer; day 10) of the same compound?
The value was 328 ± 23 mm^3.

And the “Tumor Volume (mm^3), mean ± SEM” value (T47D human breast cancer; day 14)?
Its value is 342 ± 26 mm^3.

What about the “Tumor Volume (mm^3), mean ± SEM” value (T47D human breast cancer; day 17) of the same compound?
Its value is 344 ± 29 mm^3.

And the “Tumor Volume (mm^3), mean ± SEM” value (T47D human breast cancer; day 21)?
Its value is 360 ± 36 mm^3.

And the “Tumor Volume (mm^3), mean ± SEM” value (T47D human breast cancer; day 24)?
Its value is 384 ± 42 mm^3.

What about the “T/Cweight (%)” value (T47D human breast cancer; day 28) of the same compound?
The value was 41.79%.

What about the “TGI (%)” value (T47D human breast cancer; day 28) of the same compound?
Its value is 70.93%.

And the “Tumor Volume (mm^3), mean ± SEM” value (T47D human breast cancer; day 28)?
Its value is 407 ± 49 mm^3.

And the “T/C (%)” value (T47D human breast cancer; tumor volume day 28 vs control G1)?
Its value is 43.63%.

With CC[C@@]1(O)C(=O)OCc2c1cc1n(c2=O)Cc2c-1nc1cc(F)c(C)c3c1c2[C@@H](N)CC3 [Exatecan, reference compound] as the compound, how does the IC50 [1] read?
The IC50 was 2.3 nM.

And the IC50 [3]?
The IC50 was 0.62 nM.

Which “TGI (%), Day 25” value ([4]; 5 mg/kg i.v. QW × 3wks) does the source give for “PADCEV: ADC in which anti-Nectin4 mAb and MMAE are linked by an mc-vc-PAB linker [reference compound]” here?
Its value is 108.4%.

And the “ΔT/ΔC (%), Day 25” value ([4]; 5 mg/kg i.v. QW × 3wks)?
The value was -8.4%.

And the “Tumor Volume (mean ± SEM), Day 25” value ([4]; 5 mg/kg i.v. QW × 3wks)?
The value was 27.26 +/- 2.75(10) mm^3.

And the “TGI (%), Day 25” value ([4]; 10 mg/kg i.v. QW × 3wks)?
Its value is 109.4%.

And the “ΔT/ΔC (%), Day 25” value ([4]; 10 mg/kg i.v. QW × 3wks)?
The value was -9.4%.

What about the “Tumor Volume (mean ± SEM), Day 25” value ([4]; 10 mg/kg i.v. QW × 3wks) of the same compound?
Its value is 11.07 +/- 3.12(10) mm^3.
